Patent US10597396B2, “Beta-lactamase inhibitors” (Novartis AG, priority 2016, dated 2020)
Like-named read-outs stand apart in the source and are kept apart here.

Columns and labels:
Format in all cases: cell-based
E. coli (CTX-M-15) = assay: microbe, parasite or virus in culture; conditions: for MIC: Escherichia coli
Method: (§1) MICs were determined by the broth microdilution method in accordance with Clinical and Laboratories Institute (CLSI) guidelines. In brief, fresh overnight bacterial cultures were suspended in sterile saline, and adjusted to a 0.5 McFarland turbidity standard. Bacterial suspensions were then diluted in cation adjusted Mueller-Hinton Broth (MHB II; BBL) to yield a final inoculum of approximately 5×10^5 colony-forming units (CFU)/mL. A master plate of antibiotics was prepared at a concentration equivalent to hundred-fold the highest desired final concentration in 100% dimethyl sulfoxide (DMSO). The master antibiotic plate was then diluted by serial twofold dilution with a multichannel pipette. The resulting dilution series of compounds were diluted 1:10 with sterile water or a solution of beta-lactamase inhibitor prepared at a concentration equivalent to eleven-fold the desired final concentration in deionized water leading to a 10% DMSO final concentration. A volume of 10 μL of the drug dilution series was transferred to 96-well assay plates. Assay plates were inoculated with 90 μL of bacterial suspensions and incubated at 35° C. for 20 hrs. The assay plates were read using a microtiter plate reader (Molecular Devices) at 600 nm as well as by visual observation with a reading mirror. The lowest concentration of the compound that prevented visible growth was recorded as the MIC.
(§2) Synergy or potentiation of beta-lactam antibiotics through inhibition of […] was assessed against an isogenic panel of E. coli strains, each expressing a unique beta-lactamase, and against clinical strains.
(§3) Strain NB27273 (BW25113 pspB::Km^r) was obtained from the Keio transposon insertion collection. The strain has the pspB gene replaced by a kanamycin resistance marker (BW25113 pspB::Km^r). This strain was cured of the transposon in pspB via FLP recombinase using published methodology. The resulting strain, BW25113 pspB, was used as a host for multicopy vectors expressing key beta-lactamases. Multicopy plasmids directing constitutive expression of beta-lactamases were established as follows: Synthetic, codon optimized genes encoding E. coli KPC-2, SHV-12 and CTX-M-15 beta-lactamases were made by DNA2.0 (Palo Alto, Calif.). Each of the synthetic fragments were designed to contain NotI and NcoI restriction sites at their termini, allowing ligation into a NotI/NcoI digested pET28a(+) derivative for protein expression. […] The codon optimized nucleotide sequences and relevant primer recognition information is shown below:
(§4) The PCR products were then digested with XhoI and EcoRI and ligated into similarly digested plasmid pAH63-pstS(BlaP). […] Therefore, expression of beta-lactamases from pAH63-pstS(BlaP) based constructs is constitutive and the signal sequence is provided to direct these proteins to the periplasm. […] These fragments were then digested with XbaI and EcoRI, and each was inserted into pBAD18-kan that had been digested with the same enzymes to generate multicopy vectors expressing KPC-2, SHV-12 and CTX-M-15, respectively. These vectors were transformed into BW25113 pspB to generate strains NB27273-CDY0033 (expressing KPC-2), NB27273-CDY0030 (expressing SHV-12), NB27273-CDY0034 (expressing CTX-M-15) and NB27273-CDY0036 (expressing AmpC). The pBAD18-kan vector also contains the TEM promoter region and signal sequence, (but lacks any intact beta-lactamase genes) and was transformed into BW25113 pspB using standard protocols to generate the control strain NB27273-CDY0026.

E. coli (KPC-2) = assay: microbe, parasite or virus in culture; conditions: for MIC: Escherichia coli
Method: as §1, §2, §3, §4

E. coli (SHV-12) = assay: microbe, parasite or virus in culture; conditions: for MIC: Escherichia coli
Method: as §1, §2, §3, §4

E. coli (TEM-10) = assay: microbe, parasite or virus in culture; conditions: for MIC: Escherichia coli
Method: as §1, §2
(§5) Construction of E. coli isogenic strains, NB27273-CDY0105 (OXA-18) and NB27273-CDY0048 (TEM-10). […] The gene encoding OXA-18 was then digested with XhoI and EcoRI and inserted into this vector, from which the gene for GIM-1 had been removed with XhoI and EcoRI.
From this template DNA, three fragments were generated by PCR using the following primer pairs;
This fragment was then digested with XbaI and EcoRI and inserted into pBAD-kan which was also cut with the same enzymes. […]

E. coli (AmpC) = assay: microbe, parasite or virus in culture; conditions: for MIC: Escherichia coli
Method: as §1, with “MIC. Performance of the assay was monitored by testing aztreonam against laboratory quality control strains in accordance with guidelines of the CLSI.” for “MIC.”
as §2
The gene encoding AmpC was PCR amplified from the genome of strain P. aeruginosa PAO1 (NB52019) (GenBank ID U5R279) using primer pair E252 (gccCTCGAGggcgaggccccggcggatcgc) (SEQ ID NO: 17) and E253 (tgaGAATTCtcagcgcttcagcggcacct) (SEQ ID NO: 18).
The PCR products were then digested with XhoI and EcoRI and ligated into similarly digested plasmid pAH63-pstS(BlaP). Plasmid pAH63-pstS(BlaP) is a derivative of plasmid pAH63 (J Bacteriol: 183(21): 6384-6393) made by cloning the TEM-1 (bla) promoter and signal peptide encoding region from plasmid pBAD (J Bacteriol. 1995 July 177(14):4121-30) into plasmid pAH63. This fragment was PCR amplified from pBAD using primer pair E192 (ttcaCTGCAGtgaacgttgcgaagcaacggC) (SEQ ID NO:19) and E194 (TCGAggatcctcgagagcaaaaacaggaaggcaaaatgccg) (SEQ ID NO:20), digested with PstI and BamHI and inserted into similarly digested plasmid pAH63. Therefore, expression of beta-lactamases from pAH63-pstS(BlaP) based constructs is constitutive and the signal sequence is provided to direct these proteins to the periplasm. […]

E. coli (OXA-18) = assay: microbe, parasite or virus in culture; conditions: for MIC: Escherichia coli
Method: as §1, §2, §5
These final vectors for expression of OXA-18 and TEM-10 were transformed into BW25113 pspB to generate strains NB27273-CDY0105 (expressing OXA-18) and NB27273-CDY0048 (expressing TEM-10).

[1] = system: E. coli ATCC 25922, K. pneumoniae ATCC 43816, P. aeruginosa ATCC 27853; assay: Direct antibacterial activity of BLIs, summary of Table A in words; conditions: BLI alone; statement on Table A
Method: as §1, with “A volume of 10 μL of the drug dilution series was transferred to 96-well assay plates. Assay plates were inoculated with 90 μL of bacterial suspensions and incubated at 35° C. for 20 hrs.” left out, “MIC. Performance of the assay was monitored by testing aztreonam against laboratory quality control strains in accordance with guidelines of the CLSI.” for “MIC.”

[2] = system: Enterobacter cloacae NB25055 (CMY-2); assay: Potentiation of beta-lactam MIC in beta-lactam resistant clinical isolate; conditions: read-out: Activity (MIC) of piperacillin alone
Method: as §1, with “MIC. Performance of the assay was monitored by testing aztreonam against laboratory quality control strains in accordance with guidelines of the CLSI.” for “MIC.”
as §2

[3] = system: K. pneumoniae NB29082 (KPC-2); assay: as above; conditions: Klebsiella pneumoniae, read-out: Activity (MIC) of piperacillin alone
Method: as §1, with “MIC. Performance of the assay was monitored by testing aztreonam against laboratory quality control strains in accordance with guidelines of the CLSI.” for “MIC.”
as §2

S. aureus NB01437 (BLA+) = assay: as above; conditions: Staphylococcus aureus, read-out: Activity (MIC) of piperacillin alone
Method: as §1, with “MIC. Performance of the assay was monitored by testing aztreonam against laboratory quality control strains in accordance with guidelines of the CLSI.” for “MIC.”
as §2

[4] = system: K. pneumoniae NB29323 (CTX-M-15, OXA-48, VEB-1); assay: as above; conditions: Klebsiella pneumoniae, read-out: Activity (MIC) of aztreonam alone
Method: as §1, with “MIC. Performance of the assay was monitored by testing aztreonam against laboratory quality control strains in accordance with guidelines of the CLSI.” for “MIC.”
as §2

[5] = read-out: MIC of ceftazidime alone, no BLI
[6] = no BLI, read-out: Activity (MIC) of Beta-Lactam 5 alone

Meropenem
MIC of meropenem alone (E. coli (CTX-M-15); no BLI): ≤0.06 µg/mL
MIC of meropenem alone (E. coli (KPC-2); E. coli (KPC-2), no BLI): 1 µg/mL
MIC of meropenem alone (E. coli (SHV-12); no BLI): ≤0.06 µg/mL
MIC of meropenem alone (E. coli (TEM-10); no BLI): ≤0.06 µg/mL
MIC of meropenem alone (E. coli (AmpC); no BLI): ≤0.06 µg/mL
MIC of meropenem alone (E. coli (OXA-18); no BLI): ≤0.06 µg/mL

O=C1NC[C@@H]2C[C@@H]3CN(C(=O)N3OS(=O)(=O)[O-])[C@H]12.[Na+] [Example 1, Sodium (4R,5aS,8aS)-2,8-dioxohexahydro-2H-1,4-methanopyrrolo[3,4-d][1,3]diazepin-3(4H)-yl sulfate]
MIC of piperacillin in combination with the BLI (E. coli (OXA-18); BLI at 2 μg/mL): 2 µg/mL
Direct antibacterial activity of the BLI, in words [1]: does not exhibit much direct antibiotic activity

O=C(NC1CCNCC1)[C@@H]1CC[C@@H]2CN1C(=O)N2OS(=O)(=O)O [Relebactam]
MIC of piperacillin in combination with the BLI (E. coli (OXA-18); BLI at 2 μg/mL): >32 µg/mL

CC(C)(O/N=C(\C(=O)N[C@@H]1C(=O)N2C(C(=O)O)=C(C[n+]3ccccc3)CS[C@H]12)c1csc(N)n1)C(=O)O [Ceftazidime]
MIC (E. coli (CTX-M-15); [5]): 16 µg/mL
MIC (E. coli (KPC-2); read-out: MIC of ceftazidime alone): 4 µg/mL
MIC (E. coli (SHV-12); [5]): > 64 µg/mL
MIC (E. coli (TEM-10); [5]): > 64 µg/mL
MIC (E. coli (AmpC); [5]): 4 µg/mL
MIC (E. coli (OXA-18); [5]): > 64 µg/mL

CCN1CCN(C(=O)N[C@@H](C(=O)N[C@@H]2C(=O)N3C2SC(C)(C)[C@@H]3C(=O)O)c2ccccc2)C(=O)C1=O (some centres unmarked) [Piperacillin]
MIC [2]: > 64 µg/mL
MIC [3]: > 64 µg/mL
MIC (S. aureus NB01437 (BLA+)): 64 µg/mL

O=C1[C@@H]2[C@@H](C[C@@H]3CN2C(=O)N3OS(=O)(=O)[O-])CN1C1CC1.[Na+] [Example 3, Sodium (4R,5aS,8aS)-7-cyclopropyl-2,8-dioxohexahydro-2H-1,4-methanopyrrolo[3,4-d][1,3]diazepin-3(4H)-yl sulfate]
MIC of piperacillin in combination with the BLI (E. coli (OXA-18); BLI at 2 μg/mL): 4 µg/mL

Nc1nc(/C(=N/OC2(C(=O)O)CC2)C(=O)N[C@@H]2C(=O)N(S(=O)(=O)O)[C@@H]2CN2CCOC2=O)cs1 [Beta-Lactam 5]
MIC (E. coli (CTX-M-15); [6]): 0.125 µg/mL
MIC (E. coli (KPC-2); E. coli (KPC-2), no BLI, read-out: Activity (MIC) of Beta-Lactam 5 alone): 0.25 µg/mL
MIC (E. coli (SHV-12); [6]): 0.5 µg/mL
MIC (E. coli (TEM-10); [6]): 2 µg/mL
MIC (E. coli (AmpC); [6]): 0.25 µg/mL
MIC (E. coli (OXA-18); [6]): 0.5 µg/mL

CN1C[C@@H]2C[C@@H]3CN(C(=O)N3OS(=O)(=O)[O-])[C@@H]2C1=O.[Na+] [Example 2, Sodium (4R,5aS,8aS)-7-methyl-2,8-dioxohexahydro-2H-1,4-methanopyrrolo[3,4-d][1,3]diazepin-3(4H)-yl sulfate]
MIC of piperacillin in combination with the BLI (E. coli (OXA-18); BLI at 2 μg/mL): 4 µg/mL

C[C@H]1[C@H](NC(=O)/C(=N\OC(C)(C)C(=O)O)c2csc(N)n2)C(=O)N1S(=O)(=O)O [Aztreonam]
MIC [4]: > 64 µg/mL

NC(=O)[C@@H]1CC[C@@H]2CN1C(=O)N2OS(=O)(=O)O [Avibactam]
MIC of piperacillin in combination with the BLI (E. coli (OXA-18); BLI at 2 μg/mL): 2 µg/mL
Direct antibacterial activity of the BLI, in words [1]: exhibit direct antibacterial activity

C[C@]1(Cn2ccnn2)[C@H](C(=O)O)N2C(=O)C[C@H]2S1(=O)=O [Tazobactam]
MIC of piperacillin in combination with the BLI (E. coli (OXA-18); BLI at 4 μg/mL): 8 µg/mL

O=C1NCC[C@@H]2C[C@@H]3CN(C(=O)N3OS(=O)(=O)[O-])[C@H]12.[Na+] [Example 7, Sodium (4R,5aR,9aS)-2,9-dioxooctahydro-1,4-methanopyrido[3,4-d][1,3]diazepin-3(2H)-yl hydrogen sulfate]
MIC of piperacillin in combination with the BLI (E. coli (AmpC); BLI at 2 μg/mL): 8 µg/mL
MIC of piperacillin in combination with the BLI (E. coli (OXA-18); BLI at 2 μg/mL): 8 µg/mL
